Reference: patent EP4722207A1, “OXOISOINDOLINYL-SUBSTITUTED TETRAHYDROPYRIMIDINEDIONE DERIVATIVE AND USE THEREOF” (Gluetacs Therapeutics (Shanghai) Co., Ltd., priority 2023, dated 2024)

What was measured:
Format in all cases: cell-based
Conditions in all cases: 24 hours of compound treatment, 50 nM and 500 nM
[1] = target: T1, GSPT1 (Homo sapiens, UniProt P15170+Q96SW2); experiment: Western-blot assay, substrate protein degradation in hPBMCs: GSPT1
T1 construct: effects of the compounds of the present disclosure on the expression of target proteins in cells; endogenous in cells; host or cells: human PBMCs (hPBMCs)

[2] = target: T2, IKZF2 (Homo sapiens, UniProt Q96SW2+Q9UKS7); experiment: Western-blot assay, substrate protein degradation in hPBMCs: IKZF2
T2 construct: effects of the compounds of the present disclosure on the expression of target proteins in cells; endogenous in cells; host or cells: human PBMCs (hPBMCs)

[3] = target: T3, WEE1 (Homo sapiens, UniProt P30291+Q96SW2); experiment: Western-blot assay, substrate protein degradation in hPBMCs: WEE1
T3 construct: effects of the compounds of the present disclosure on the expression of target proteins in cells; endogenous in cells; host or cells: human PBMCs (hPBMCs)

[4] = target: T4, IKZF1 (Homo sapiens, UniProt Q13422+Q96SW2); experiment: Western-blot assay, substrate protein degradation in hPBMCs: IKZF1
T4 construct: effects of the compounds of the present disclosure on the expression of target proteins in cells; endogenous in cells; host or cells: human PBMCs (hPBMCs)

[5] = target: T5, IKZF3 (Homo sapiens, UniProt Q96SW2+Q9UKT9); experiment: Western-blot assay, substrate protein degradation in hPBMCs: IKZF3
T5 construct: effects of the compounds of the present disclosure on the expression of target proteins in cells; endogenous in cells; host or cells: human PBMCs (hPBMCs)

[6] = target: T6, CK1α (Homo sapiens, UniProt P48729+Q96SW2); experiment: Western-blot assay, substrate protein degradation in hPBMCs: CK1α
T6 construct: effects of the compounds of the present disclosure on the expression of target proteins in cells; endogenous in cells; host or cells: human PBMCs (hPBMCs)

T5 sequence (Q9UKT9 whole entry): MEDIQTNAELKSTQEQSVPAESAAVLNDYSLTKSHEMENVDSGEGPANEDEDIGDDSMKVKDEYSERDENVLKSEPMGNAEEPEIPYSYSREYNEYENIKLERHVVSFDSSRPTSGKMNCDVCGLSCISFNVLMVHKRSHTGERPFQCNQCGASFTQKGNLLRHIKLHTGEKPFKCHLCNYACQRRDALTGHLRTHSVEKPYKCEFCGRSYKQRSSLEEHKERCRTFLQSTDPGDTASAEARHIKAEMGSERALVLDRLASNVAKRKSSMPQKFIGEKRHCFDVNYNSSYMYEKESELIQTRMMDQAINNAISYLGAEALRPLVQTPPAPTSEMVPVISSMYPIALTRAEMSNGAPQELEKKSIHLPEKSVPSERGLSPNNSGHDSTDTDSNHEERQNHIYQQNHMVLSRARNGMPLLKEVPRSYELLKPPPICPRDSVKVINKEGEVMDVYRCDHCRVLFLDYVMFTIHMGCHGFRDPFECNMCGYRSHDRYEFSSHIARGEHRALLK
T5 sequence (Q96SW2 whole entry): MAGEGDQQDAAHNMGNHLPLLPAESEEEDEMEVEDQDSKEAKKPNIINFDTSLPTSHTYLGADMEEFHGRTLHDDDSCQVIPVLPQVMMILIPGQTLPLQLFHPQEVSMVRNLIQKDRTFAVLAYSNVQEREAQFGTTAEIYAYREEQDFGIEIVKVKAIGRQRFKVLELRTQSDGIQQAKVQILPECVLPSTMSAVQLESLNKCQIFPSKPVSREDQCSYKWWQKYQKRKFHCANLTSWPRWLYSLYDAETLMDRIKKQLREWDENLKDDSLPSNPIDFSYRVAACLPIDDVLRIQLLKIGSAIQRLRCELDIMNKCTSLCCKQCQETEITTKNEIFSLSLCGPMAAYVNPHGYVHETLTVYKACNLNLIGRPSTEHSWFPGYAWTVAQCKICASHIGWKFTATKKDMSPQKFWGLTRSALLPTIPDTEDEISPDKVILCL
T5 sequence (Q16531 whole entry partner): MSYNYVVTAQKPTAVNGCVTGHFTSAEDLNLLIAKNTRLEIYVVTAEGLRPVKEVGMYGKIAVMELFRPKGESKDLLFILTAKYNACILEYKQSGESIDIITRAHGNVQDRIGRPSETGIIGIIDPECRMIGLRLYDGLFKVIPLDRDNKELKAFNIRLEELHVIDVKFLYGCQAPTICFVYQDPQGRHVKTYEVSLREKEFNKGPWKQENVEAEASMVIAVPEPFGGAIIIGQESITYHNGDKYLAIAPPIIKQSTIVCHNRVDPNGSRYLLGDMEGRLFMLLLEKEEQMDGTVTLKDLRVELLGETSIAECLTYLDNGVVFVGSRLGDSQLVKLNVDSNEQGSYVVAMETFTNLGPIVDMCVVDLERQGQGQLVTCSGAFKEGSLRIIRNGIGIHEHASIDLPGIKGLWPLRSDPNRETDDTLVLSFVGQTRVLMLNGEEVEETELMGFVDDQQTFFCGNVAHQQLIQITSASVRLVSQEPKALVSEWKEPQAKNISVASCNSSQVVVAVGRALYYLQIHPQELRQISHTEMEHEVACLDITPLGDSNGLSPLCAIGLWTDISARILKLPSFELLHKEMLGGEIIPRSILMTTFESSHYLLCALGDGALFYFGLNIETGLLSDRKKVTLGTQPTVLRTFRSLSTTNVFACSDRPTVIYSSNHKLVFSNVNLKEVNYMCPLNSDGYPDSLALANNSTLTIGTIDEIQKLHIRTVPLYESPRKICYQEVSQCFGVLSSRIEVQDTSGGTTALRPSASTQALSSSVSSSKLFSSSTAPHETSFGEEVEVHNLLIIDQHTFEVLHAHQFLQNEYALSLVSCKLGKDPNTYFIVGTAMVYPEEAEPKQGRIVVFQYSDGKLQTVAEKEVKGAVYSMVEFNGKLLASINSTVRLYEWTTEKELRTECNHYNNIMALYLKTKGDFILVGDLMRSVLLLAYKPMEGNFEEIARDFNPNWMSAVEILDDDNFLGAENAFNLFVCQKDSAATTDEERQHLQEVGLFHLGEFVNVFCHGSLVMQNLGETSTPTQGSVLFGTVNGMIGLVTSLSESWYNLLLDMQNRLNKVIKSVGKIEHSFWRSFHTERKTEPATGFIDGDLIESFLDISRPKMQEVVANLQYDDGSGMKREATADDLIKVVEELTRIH
T4 sequence (Q13422 whole entry): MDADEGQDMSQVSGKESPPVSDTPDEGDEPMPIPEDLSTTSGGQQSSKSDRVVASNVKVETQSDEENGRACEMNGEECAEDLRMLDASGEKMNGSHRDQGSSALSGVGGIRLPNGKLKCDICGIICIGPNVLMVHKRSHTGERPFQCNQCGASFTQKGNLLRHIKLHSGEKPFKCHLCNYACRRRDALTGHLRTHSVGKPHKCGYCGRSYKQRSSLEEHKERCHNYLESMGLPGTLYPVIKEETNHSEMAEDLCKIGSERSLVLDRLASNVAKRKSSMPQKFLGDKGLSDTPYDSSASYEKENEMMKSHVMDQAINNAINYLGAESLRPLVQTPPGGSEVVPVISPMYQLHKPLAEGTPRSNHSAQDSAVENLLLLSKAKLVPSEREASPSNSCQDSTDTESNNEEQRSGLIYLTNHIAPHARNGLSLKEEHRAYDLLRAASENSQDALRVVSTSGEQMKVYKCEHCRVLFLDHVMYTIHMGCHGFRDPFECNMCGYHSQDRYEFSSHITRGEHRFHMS
T4 sequence (Q96SW2 whole entry): as the sequence (Q96SW2 whole entry) above
T4 sequence (Q16531 whole entry partner): as the sequence (Q16531 whole entry partner) above
T3 sequence (P30291 whole entry): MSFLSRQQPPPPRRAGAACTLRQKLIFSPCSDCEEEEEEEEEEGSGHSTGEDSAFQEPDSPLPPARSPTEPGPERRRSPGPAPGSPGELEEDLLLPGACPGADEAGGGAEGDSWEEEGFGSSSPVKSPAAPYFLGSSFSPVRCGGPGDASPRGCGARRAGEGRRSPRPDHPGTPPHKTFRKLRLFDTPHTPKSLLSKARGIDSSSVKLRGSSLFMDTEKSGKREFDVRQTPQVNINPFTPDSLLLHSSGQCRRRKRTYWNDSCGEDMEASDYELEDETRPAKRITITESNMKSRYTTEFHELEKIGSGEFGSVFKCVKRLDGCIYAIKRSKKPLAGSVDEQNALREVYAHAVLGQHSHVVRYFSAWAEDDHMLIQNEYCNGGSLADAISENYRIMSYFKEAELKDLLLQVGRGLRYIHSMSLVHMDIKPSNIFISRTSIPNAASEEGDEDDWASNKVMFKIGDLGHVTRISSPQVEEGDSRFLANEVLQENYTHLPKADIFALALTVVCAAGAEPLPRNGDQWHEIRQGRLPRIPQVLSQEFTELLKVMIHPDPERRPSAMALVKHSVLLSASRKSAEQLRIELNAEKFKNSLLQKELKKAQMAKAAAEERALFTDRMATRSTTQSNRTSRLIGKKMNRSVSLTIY
T3 sequence (Q96SW2 whole entry): as the sequence (Q96SW2 whole entry) above
T3 sequence (Q16531 whole entry partner): as the sequence (Q16531 whole entry partner) above
T2 sequence (Q9UKS7 whole entry): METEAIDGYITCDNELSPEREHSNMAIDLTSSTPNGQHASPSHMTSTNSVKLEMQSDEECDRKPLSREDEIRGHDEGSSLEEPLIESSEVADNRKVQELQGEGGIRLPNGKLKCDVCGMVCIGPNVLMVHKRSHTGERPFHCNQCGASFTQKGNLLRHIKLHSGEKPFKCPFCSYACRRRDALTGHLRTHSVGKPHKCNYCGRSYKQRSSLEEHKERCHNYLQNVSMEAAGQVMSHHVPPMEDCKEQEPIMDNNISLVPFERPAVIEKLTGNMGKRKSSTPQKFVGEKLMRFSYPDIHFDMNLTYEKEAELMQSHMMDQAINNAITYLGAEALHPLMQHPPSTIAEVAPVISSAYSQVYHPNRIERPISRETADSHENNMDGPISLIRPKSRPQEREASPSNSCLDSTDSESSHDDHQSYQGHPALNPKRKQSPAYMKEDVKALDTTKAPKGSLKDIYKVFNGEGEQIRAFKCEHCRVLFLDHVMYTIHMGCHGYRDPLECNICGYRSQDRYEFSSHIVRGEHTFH
T2 sequence (Q96SW2 whole entry): as the sequence (Q96SW2 whole entry) above
T2 sequence (Q16531 whole entry partner): as the sequence (Q16531 whole entry partner) above
T1 sequence (P15170 whole entry): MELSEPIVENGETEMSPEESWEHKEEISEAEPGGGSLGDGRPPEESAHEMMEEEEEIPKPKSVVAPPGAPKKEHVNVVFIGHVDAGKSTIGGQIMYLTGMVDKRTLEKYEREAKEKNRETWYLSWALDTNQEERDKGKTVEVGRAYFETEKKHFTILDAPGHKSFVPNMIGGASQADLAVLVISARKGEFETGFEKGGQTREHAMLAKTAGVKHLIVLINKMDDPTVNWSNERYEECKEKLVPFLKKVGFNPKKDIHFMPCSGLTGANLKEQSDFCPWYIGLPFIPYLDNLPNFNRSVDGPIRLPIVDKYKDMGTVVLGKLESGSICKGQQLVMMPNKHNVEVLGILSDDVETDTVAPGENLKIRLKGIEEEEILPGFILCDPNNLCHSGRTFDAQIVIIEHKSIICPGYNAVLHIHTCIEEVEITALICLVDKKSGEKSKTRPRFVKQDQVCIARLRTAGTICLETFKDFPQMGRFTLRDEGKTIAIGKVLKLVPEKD
T1 sequence (Q96SW2 whole entry): as the sequence (Q96SW2 whole entry) above
T1 sequence (Q16531 whole entry partner): as the sequence (Q16531 whole entry partner) above

Compound: O=C1CCN(N2C(=O)c3ccc(CN4CC5CCC4CN5c4cccc(Cl)c4Cl)cc3C2=O)C(=O)N1 (stereo not drawn) [GT-07436, 5-((5-(2,3-dichlorophenyl)-2,5-diazabicyclo[2.2.2]octan-2-yl)methyl)-2-(2,4-dioxotetrahydropyrimidin-1(2H)-yl)isoindoline-1,3-dione]
- substrate protein remaining % GSPT1 [1]: B (80%< substrate protein remaining %≤ 100%)
- substrate protein remaining % IKZF2 [2]: A (0% ≤ substrate protein remaining % ≤ 80%)
- substrate protein remaining % WEE1 [3]: B (80%< substrate protein remaining %≤ 100%)
- substrate protein remaining % IKZF1 [4]: B (80%< substrate protein remaining %≤ 100%)
- substrate protein remaining % IKZF3 [5]: B (80%< substrate protein remaining %≤ 100%)
- substrate protein remaining % CK1α [6]: A (0% ≤ substrate protein remaining % ≤ 80%)

Compound: O=C1CCN(N2C(=O)c3ccc(CN4CC5CCC(C4)N5c4cccc(Cl)c4Cl)cc3C2=O)C(=O)N1 [GT-07437, 5-((8-(2,3-dichlorophenyl)-3,8-diazabicyclo[3.2.1]octan-3-yl)methyl)-2-(2,4-dioxotetrahydropyrimidin-1(2H)-yl)isoindoline-1,3-dione]
- substrate protein remaining % GSPT1 [1]: A (0% ≤ substrate protein remaining % ≤ 80%)
- substrate protein remaining % IKZF2 [2]: B (80%< substrate protein remaining %≤ 100%)
- substrate protein remaining % WEE1 [3]: A (0% ≤ substrate protein remaining % ≤ 80%)
- substrate protein remaining % IKZF1 [4]: B (80%< substrate protein remaining %≤ 100%)
- substrate protein remaining % IKZF3 [5]: B (80%< substrate protein remaining %≤ 100%)
- substrate protein remaining % CK1α [6]: A (0% ≤ substrate protein remaining % ≤ 80%)

Compound: O=C1CCN(N2C(=O)c3ccc(CN4C5CCC4CN(c4cccc(Cl)c4Cl)C5)cc3C2=O)C(=O)N1 [GT-07438, 5-((3-(2,3-dichlorophenyl)-3,8-diazabicyclo[3.2.1]octan-8-yl)methyl)-2-(2,4-dioxotetrahydropyrimidin-1(2H)-yl)isoindoline-1,3-dione]
- substrate protein remaining % GSPT1 [1]: A (0% ≤ substrate protein remaining % ≤ 80%)
- substrate protein remaining % IKZF2 [2]: B (80%< substrate protein remaining %≤ 100%)
- substrate protein remaining % WEE1 [3]: A (0% ≤ substrate protein remaining % ≤ 80%)
- substrate protein remaining % IKZF1 [4]: B (80%< substrate protein remaining %≤ 100%)
- substrate protein remaining % IKZF3 [5]: B (80%< substrate protein remaining %≤ 100%)
- substrate protein remaining % CK1α [6]: A (0% ≤ substrate protein remaining % ≤ 80%)

Compound: O=C1CCN(N2C(=O)c3ccc(CN4CCCN(c5cccc(Cl)c5Cl)CC4)cc3C2=O)C(=O)N1 [GT-07439, 5-((4-(2,3-dichlorophenyl)-1,4-diazepan-1-yl)methyl)-2-(2,4-dioxotetrahydropyrimidin-1(2H)-yl)isoindoline-1,3-dione]
- substrate protein remaining % GSPT1 [1]: A (0% ≤ substrate protein remaining % ≤ 80%)
- substrate protein remaining % IKZF2 [2]: B (80%< substrate protein remaining %≤ 100%)
- substrate protein remaining % WEE1 [3]: B (80%< substrate protein remaining %≤ 100%)
- substrate protein remaining % IKZF1 [4]: B (80%< substrate protein remaining %≤ 100%)
- substrate protein remaining % IKZF3 [5]: B (80%< substrate protein remaining %≤ 100%)
- substrate protein remaining % CK1α [6]: A (0% ≤ substrate protein remaining % ≤ 80%)

Compound: O=C1CCN(N2C(=O)c3ccc(CN4CC=C(c5ccnc(Cl)c5Cl)CC4)cc3C2=O)C(=O)N1 [GT-07440, 5-((2',3'-dichloro-3,6-dihydro-[4,4'-bipyridin]-1(2H)-yl)methyl)-2-(2,4-dioxotetrahydropyrimidin-1(2H)-yl)isoindoline-1,3-dione]
- substrate protein remaining % GSPT1 [1]: A (0% ≤ substrate protein remaining % ≤ 80%)
- substrate protein remaining % IKZF2 [2]: B (80%< substrate protein remaining %≤ 100%)
- substrate protein remaining % WEE1 [3]: A (0% ≤ substrate protein remaining % ≤ 80%)
- substrate protein remaining % IKZF1 [4]: B (80%< substrate protein remaining %≤ 100%)
- substrate protein remaining % IKZF3 [5]: B (80%< substrate protein remaining %≤ 100%)
- substrate protein remaining % CK1α [6]: A (0% ≤ substrate protein remaining % ≤ 80%)

Compound: O=C1CCN(N2C(=O)c3ccc(CN4CC=C(c5ccoc5)CC4)cc3C2=O)C(=O)N1 [GT-07442, 2-(2,4-dioxotetrahydropyrimidin-1(2H)-yl)-5-((4-(furan-3-yl)-3,6-dihydropyridin-1(2H)-yl)methyl)isoindoline-1,3-dione]
- substrate protein remaining % GSPT1 [1]: A (0% ≤ substrate protein remaining % ≤ 80%)
- substrate protein remaining % IKZF2 [2]: B (80%< substrate protein remaining %≤ 100%)
- substrate protein remaining % WEE1 [3]: A (0% ≤ substrate protein remaining % ≤ 80%)
- substrate protein remaining % IKZF1 [4]: B (80%< substrate protein remaining %≤ 100%)
- substrate protein remaining % IKZF3 [5]: A (0% ≤ substrate protein remaining % ≤ 80%)
- substrate protein remaining % CK1α [6]: B (80%< substrate protein remaining %≤ 100%)

Compound: O=C1CCN(N2C(=O)c3ccc(CN4CC=C(c5cncc(Cl)c5)CC4)cc3C2=O)C(=O)N1 [GT-07491, 5-((5-chloro-3',6'-dihydro-[3,4'-bipyridin]-1'(2'H)-yl)methyl)-2-(2,4-dioxotetrahydropyrimidin-1(2H)-yl)isoindoline-1,3-dione]
- substrate protein remaining % GSPT1 [1]: A (0% ≤ substrate protein remaining % ≤ 80%)
- substrate protein remaining % IKZF2 [2]: B (80%< substrate protein remaining %≤ 100%)
- substrate protein remaining % WEE1 [3]: A (0% ≤ substrate protein remaining % ≤ 80%)
- substrate protein remaining % IKZF1 [4]: B (80%< substrate protein remaining %≤ 100%)
- substrate protein remaining % IKZF3 [5]: B (80%< substrate protein remaining %≤ 100%)
- substrate protein remaining % CK1α [6]: B (80%< substrate protein remaining %≤ 100%)

Compound: O=C1CCN(N2C(=O)c3ccc(CN4CC=C(c5ncccc5F)CC4)cc3C2=O)C(=O)N1 [GT-07492, 2-(2,4-dioxotetrahydropyrimidin-1(2H)-yl)-5-((3-fluoro-3',6'-dihydro-[2,4'-bipyridin]-1'(2'H)-yl)methyl)isoindoline-1,3-dione]
- substrate protein remaining % GSPT1 [1]: B (80%< substrate protein remaining %≤ 100%)
- substrate protein remaining % IKZF2 [2]: B (80%< substrate protein remaining %≤ 100%)
- substrate protein remaining % WEE1 [3]: B (80%< substrate protein remaining %≤ 100%)
- substrate protein remaining % IKZF1 [4]: B (80%< substrate protein remaining %≤ 100%)
- substrate protein remaining % IKZF3 [5]: B (80%< substrate protein remaining %≤ 100%)
- substrate protein remaining % CK1α [6]: A (0% ≤ substrate protein remaining % ≤ 80%)

Compound: O=C1CCN(N2C(=O)c3ccc(CN4CCC(c5ccnc(F)c5F)CC4)cc3C2=O)C(=O)N1 [GT-07493, 5-((4-(2,3-difluoropyridin-4-yl)piperidin-1-yl)methyl)-2-(2,4-dioxotetrahydropyrimidin-1(2H)-yl)isoindoline-1,3-dione]
- substrate protein remaining % GSPT1 [1]: B (80%< substrate protein remaining %≤ 100%)
- substrate protein remaining % IKZF2 [2]: B (80%< substrate protein remaining %≤ 100%)
- substrate protein remaining % WEE1 [3]: B (80%< substrate protein remaining %≤ 100%)
- substrate protein remaining % IKZF1 [4]: B (80%< substrate protein remaining %≤ 100%)
- substrate protein remaining % IKZF3 [5]: A (0% ≤ substrate protein remaining % ≤ 80%)
- substrate protein remaining % CK1α [6]: A (0% ≤ substrate protein remaining % ≤ 80%)

Compound: O=C1CCN(N2C(=O)c3ccc(CN4CC=C(c5ccnc(F)c5F)CC4)cc3C2=O)C(=O)N1 [GT-07494, 5-((2',3'-difluoro-3,6-dihydro-[4,4'-bipyridin]-1(2H)-yl)methyl)-2-(2,4-dioxotetrahydropyrimidin-1(2H)-yl)isoindoline-1,3-dione]
- substrate protein remaining % GSPT1 [1]: B (80%< substrate protein remaining %≤ 100%)
- substrate protein remaining % IKZF2 [2]: B (80%< substrate protein remaining %≤ 100%)
- substrate protein remaining % WEE1 [3]: A (0% ≤ substrate protein remaining % ≤ 80%)
- substrate protein remaining % IKZF1 [4]: B (80%< substrate protein remaining %≤ 100%)
- substrate protein remaining % IKZF3 [5]: B (80%< substrate protein remaining %≤ 100%)
- substrate protein remaining % CK1α [6]: A (0% ≤ substrate protein remaining % ≤ 80%)

Compound: O=C1CCN(N2Cc3cc(CN4CCC(c5ccon5)CC4)ccc3C2=O)C(=O)N1 [GT-07495, 1-(5-((4-(isoxazol-3-yl)piperidin-1-yl)methyl)-1-oxoisoindolin-2-yl)dihydropyrimidine-2,4(1H,3H)-dione]
- substrate protein remaining % GSPT1 [1]: A (0% ≤ substrate protein remaining % ≤ 80%)
- substrate protein remaining % IKZF2 [2]: B (80%< substrate protein remaining %≤ 100%)
- substrate protein remaining % WEE1 [3]: B (80%< substrate protein remaining %≤ 100%)
- substrate protein remaining % IKZF1 [4]: B (80%< substrate protein remaining %≤ 100%)
- substrate protein remaining % IKZF3 [5]: B (80%< substrate protein remaining %≤ 100%)
- substrate protein remaining % CK1α [6]: A (0% ≤ substrate protein remaining % ≤ 80%)

Compound: O=C1CCN(N2Cc3cc(CN4CCN(c5noc6cc(F)ccc56)CC4)ccc3C2=O)C(=O)N1 [GT-07496, 1-(5-((4-(6-fluorobenzo[d]isoxazol-3-yl)piperazin-1-yl)methyl)-1-oxoisoindolin-2-yl)dihydropyrimidine-2,4(1H,3H)-dione]
- substrate protein remaining % GSPT1 [1]: A (0% ≤ substrate protein remaining % ≤ 80%)
- substrate protein remaining % IKZF2 [2]: B (80%< substrate protein remaining %≤ 100%)
- substrate protein remaining % WEE1 [3]: B (80%< substrate protein remaining %≤ 100%)
- substrate protein remaining % IKZF1 [4]: B (80%< substrate protein remaining %≤ 100%)
- substrate protein remaining % IKZF3 [5]: B (80%< substrate protein remaining %≤ 100%)
- substrate protein remaining % CK1α [6]: A (0% ≤ substrate protein remaining % ≤ 80%)

Compound: O=C1CCN(N2Cc3cc(CN4CCN(c5noc6ccncc56)CC4)ccc3C2=O)C(=O)N1 [GT-07497, 1-(5-((4-(isoxazolo[4,5-c]pyridin-3-yl)piperazin-1-yl)methyl)-1-oxoisoindolin-2-yl)dihydropyrimidine-2,4(1H,3H)-dione]
- substrate protein remaining % GSPT1 [1]: A (0% ≤ substrate protein remaining % ≤ 80%)
- substrate protein remaining % IKZF2 [2]: A (0% ≤ substrate protein remaining % ≤ 80%)
- substrate protein remaining % WEE1 [3]: A (0% ≤ substrate protein remaining % ≤ 80%)
- substrate protein remaining % IKZF1 [4]: A (0% ≤ substrate protein remaining % ≤ 80%)
- substrate protein remaining % IKZF3 [5]: B (80%< substrate protein remaining %≤ 100%)
- substrate protein remaining % CK1α [6]: A (0% ≤ substrate protein remaining % ≤ 80%)
